Patent publication US10053432B2, “Substituted [1,2,4]triazole and imidazole compounds” (BASF SE, priority 2013, dated 2018)

Key:
Type in all cases: cell-based
Conditions in all cases: at 31 ppm; absorption at 405 nm 7 days after inoculation; relative to active compound-free control (100%)
Septoria tritici = experiment: Activity against leaf blotch on wheat caused by Septoria tritici (Septtr), microtiterplate test
Botrytis cinerea = experiment: Activity against the grey mold Botrytis cinerea in the microtiterplate test (Botrci)
Pyricularia oryzae = test system: Pyricularia oryzae

Measured: growth (relative growth in % of the pathogen)

OC(Cn1cncn1)(c1ccc(C#CC2CC2)cc1Cl)C1CC1 (stereo not drawn) [Compound I-1, 1-[2-chloro-4-(2-cyclopropylethynyl)phenyl]-1-cyclopropyl-2-(1,2,4-triazol-1-yl)ethanol]
0%: all assays above
